Experimental data from patent publication US20160016951A1 (Merck Patent GmbH, priority 2014, published 2016).
Where two headings read alike, the source gives them in different places.

Biological target: T1, CDK8 (CDK8/CycC) (Homo sapiens, UniProt P49336)
T1 construct: purchased Invitrogen PV4402
Experiment: FRET based Lanthascreen binding competition assay
Method: FRET based Lanthascreen binding competition assay: A dye-labeled ATP competitive probe served as a FRET acceptor upon binding to CDK8 labeled with a strepavidin —Eu-chelate (via abiotinylated anti His antibody). […] In case this probe was competed by an inhibitor as such a signal cannot be generated any more. The CDK8 used for this assay was a protein co-expressed with CycC.
The assay procedure for an assay in a 1536 well plate was performed according to the following: 2 μL CDK8/biotin-anti-His Ab/SA-Eu mix in Assay buffer were pipetted into the wells of a micro plate.
1 μL compound in 20 mM Hepes buffer/5% DMSO was added. The plate was shaken for 30 sec and incubated for 20 min at RT. 2 μL Alexa647-probe in assay buffer were added. The plate was shaken for 30 sec again and incubated for 60 min at RT in the dark. Then the plate was read out on a Perkin Elmer Envision (mode LANCE/TRF, excitation 340 nm emission 650 nm).

[1] = 5 nM CDK8/CycC, 10 nM Alexa647-Tracer, 1% DMSO, 60 min at RT, read-out: IC50 CDK8 binding

T1 sequence (P49336 whole entry): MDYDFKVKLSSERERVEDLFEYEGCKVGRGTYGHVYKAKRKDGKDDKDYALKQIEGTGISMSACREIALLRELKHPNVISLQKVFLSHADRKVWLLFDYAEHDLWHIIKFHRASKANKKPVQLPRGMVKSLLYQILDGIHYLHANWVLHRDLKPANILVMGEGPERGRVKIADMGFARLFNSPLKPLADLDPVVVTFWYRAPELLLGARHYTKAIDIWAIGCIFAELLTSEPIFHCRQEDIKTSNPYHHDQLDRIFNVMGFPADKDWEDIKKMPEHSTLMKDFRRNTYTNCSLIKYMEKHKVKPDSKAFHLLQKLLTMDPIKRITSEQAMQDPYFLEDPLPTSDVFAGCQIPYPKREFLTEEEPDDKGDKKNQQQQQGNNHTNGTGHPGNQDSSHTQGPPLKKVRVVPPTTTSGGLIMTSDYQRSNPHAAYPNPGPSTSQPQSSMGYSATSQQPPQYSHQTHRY
T1 sequence (P24863 whole entry partner): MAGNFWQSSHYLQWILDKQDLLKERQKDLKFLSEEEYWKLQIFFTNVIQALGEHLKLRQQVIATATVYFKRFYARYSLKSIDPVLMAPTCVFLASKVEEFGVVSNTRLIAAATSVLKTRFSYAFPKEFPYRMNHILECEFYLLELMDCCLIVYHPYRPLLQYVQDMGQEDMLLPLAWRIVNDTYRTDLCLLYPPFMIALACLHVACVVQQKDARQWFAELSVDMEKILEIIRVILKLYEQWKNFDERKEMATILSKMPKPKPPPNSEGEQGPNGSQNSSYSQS

Row | SMILES | IC50 [1] | IC50
1 | CNc1ccc2cncc(-c3ccc(-c4cnn(C)c4)cc3)c2n1 [Compound 56, N-methyl-8-(4-(1-methyl-1H-pyrazol-4-yl)phenyl)-1,6-naphthyridin-2-amine] | 101 to 500 nM | –
2 | C[C@@H](NC(=O)c1ccc2cncc(-c3ccc(-c4cnn(C)c4)cc3)c2n1)c1ccccc1 [Compound 24, (R)-8-(4-(1-methyl-1H-pyrazol-4-yl)phenyl)-N-(1-phenylethyl)-1,6-naphthyridine-2-carboxamide] | < 10 nM | –
3 | O=C(c1ccc2cncc(-c3ccc4c(c3)CS(=O)(=O)N4)c2n1)N1CCC(F)(F)C1 [Compound 30, (3,3-difluoro-pyrrolidin-1-yl)-[8-(2,2-dioxo-2,3-dihydro-1H-benzo[c]isothiazol-5-yl)-[1,6]naphthyridin-2-yl]-methanone] | < 10 nM | –
4 | CNC(=O)c1ccc2c(N)ncc(-c3ccc4c(c3)CS(=O)(=O)N4C)c2n1 [Compound 32, 5-Amino-8-(1-methyl-2,2-dioxo-2,3-dihydro-1H-benzo[c]isothiazol-5-yl)-[1,6]naphthyridine-2-carboxylic acid methylamide] | < 10 nM | –
5 | Cn1cc(-c2ccc(-c3cncc4ccc(O)nc34)cc2)cn1 [Compound 79, 8-(4-(1-methyl-1H-pyrazol-4-yl)phenyl)-1,6-naphthyridin-2-ol] | 501 to 1000 nM | –
6 | Cc1cncc2ccc(C(=O)N[C@@H](C)c3ccccc3)nc12 [Compound 62, (S)-8-methyl-N-(1-phenylethyl)-1,6-naphthyridine-2-carboxamide] | 101 to 500 nM | –
7 | CN1c2ccc(-c3cncc4ccc(C(=O)NCCN)nc34)cc2CS1(=O)=O [Compound 16, 8-(1-Methyl-2,2-dioxo-2,3-dihydro-1H-benzo[c]isothiazol-5-yl)-[1,6]naphthyridine-2-carboxylic acid (2-amino-ethyl)-amide] | < 10 nM | –
8 | Cn1cc(-c2ccc(-c3cncc4ccc(C(N)=O)cc34)cc2)cn1 [Compound 96, 4-(4-(1-methyl-1H-pyrazol-4-yl)phenyl)isoquinoline-6-carboxamide] | < 10 nM | –
9 | Cc1cc2cncc(-c3ccc4c(c3)CS(=O)(=O)N4C)c2nc1C(=O)NC1CC1 [Compound 28, 3-Methyl-8-(1-methyl-2,2-dioxo-2,3-dihydro-1H-benzo[c]isothiazol-5-yl)-[1,6]naphthyridine-2-carboxylic acid cyclopropylamide] | < 10 nM | –
10 | Cn1cc(-c2ccc(-c3cncc4ccc(C(=O)N5CCNCC5)cc34)cc2)cn1 [Compound 102, (4-(4-(1-methyl-1H-pyrazol-4-yl)phenyl)isoquinolin-6-yl)(piperazin-1-yl)methanone] | < 10 nM | –
11 | Cn1cc(-c2ccc(-c3cncc4ccc(N5CCNC(=O)C5)cc34)cc2)cn1 [Compound 116, 4-{4-[4-(1-Methyl-1H-pyrazol-4-yl)-phenyl]-isoquinolin-6-yl}-piperazin-2-one] | 10 to 100 nM | –
12 | Cc1cc(C(N)=O)nc2c(-c3ccc(-c4cnn(C)c4)cc3)cncc12 [Compound 64, 4-Methyl-8-(4-(1-methyl-1H-pyrazol-4-yl)phenyl)-1,6-naphthyridine-2-carboxamide] | 101 to 500 nM | –
13 | Cn1cc(-c2ccc(-c3cncc4ccc(C(=O)N5CCC[C@H]5c5ccc(Cl)cc5)nc34)cc2)cn1 [Compound 67, (S)-(2-(4-chlorophenyl)pyrrolidin-1-yl)(8-(4-(1-methyl-1H-pyrazol-4-yl)phenyl)-1,6-naphthyridin-2-yl)methanone] | 101 to 500 nM | –
14 | COC1CN(C(=O)c2ccc3cncc(-c4ccc(-c5cnn(CC(C)(C)O)c5)cc4)c3n2)C1 [Compound 31, (8-(4-(1-(2-hydroxy-2-methylpropyl)-1H-pyrazol-4-yl)phenyl)-1,6-naphthyridin-2-yl)(3-methoxyazetidin-1-yl)methanone] | < 10 nM | –

Now from value to compound:

Row | IC50 [1] | IC50 | SMILES
15 | < 10 nM | – | Cn1cc(-c2ccc(-c3cncc4ccc(NS(=O)(=O)c5ccccc5)cc34)cc2)cn1 [Compound 152, N-{4-[4-(1-Methyl-1H-pyrazol-4-yl)-phenyl]-isoquinolin-6-yl}-benzenesulfonamide]
16 | 10 to 100 nM | – | Cn1cc(-c2ccc(-c3cncc4ccc(C(=O)N5CC(C)(F)C5)cc34)cc2)cn1 [Compound 186, (3-fluoro-3-methylazetidin-1-yl)(4-(4-(1-methyl-1H-pyrazol-4-yl)phenyl)isoquinolin-6-yl)methanone]
17 | 101 to 500 nM | – | COC1CN(C(=O)c2ccc3c(N)ncc(-c4ccc5c(c4)CCC(=O)N5C)c3c2)C1 [Compound 178, 6-(1-amino-6-(3-methoxyazetidine-1-carbonyl)isoquinolin-4-yl)-1-methyl-3,4-dihydroquinolin-2(1H)-one]
18 | – | 10 to 100 nM | COC1CN(C(=O)c2ccc3cncc(-c4ccc5nn(CC(C)(C)O)cc5c4)c3c2)C1 [Compound 133, (4-(2-(2-hydroxy-2-methylpropyl)-2H-indazol-5-yl)isoquinolin-6-yl)(3-methoxyazetidin-1-yl)methanone]
19 | 10 to 100 nM | – | CN1C(=O)Cc2cc(-c3cncc4ccc(C(=O)N5CC(F)(F)C5)cc34)ccc21 [Compound 170, 5-[6-(3,3-Difluoro-azetidine-1-carbonyl)-isoquinolin-4-yl]-1-methyl-1,3-dihydro-indol-2-one]
20 | 10 to 100 nM | – | CN(c1ccc2cncc(-c3ccc(-c4cnn(C)c4)cc3)c2c1)S(C)(=O)=O [Compound 139, N-methyl-N-(4-(4-(1-methyl-1H-pyrazol-4-yl)phenyl)isoquinolin-6-yl)methanesulfonamide]
21 | 101 to 500 nM | – | Cn1cc(-c2ccc(-c3cncc4ccc(N5C(=O)CCC5=O)cc34)cc2)cn1 [Compound 126, 1-{4-[4-(1-Methyl-1H-pyrazol-4-yl)-phenyl]-isoquinolin-6-yl}-pyrrolidine-2,5-dione]
22 | < 10 nM | – | Cn1cc(-c2ccc(-c3cncc4ccc(C(=O)N5CC(C)(F)C5)nc34)cc2)cn1 [Compound 180, (3-fluoro-3-methylazetidin-1-yl)(8-(4-(1-methyl-1H-pyrazol-4-yl)phenyl)-1,6-naphthyridin-2-yl)methanone]
23 | 10 to 100 nM | – | CN1C(=O)Cc2ccc(-c3cnc(N)c4ccc(C(=O)N5CC(F)(F)C5)cc34)cc21 [Compound 164, 6-[1-Amino-6-(3,3-difluoro-azetidine-1-carbonyl)-isoquinolin-4-yl]-1-methyl-1,3-dihydro-indol-2-one]
24 | < 10 nM | – | Cn1cc(-c2ccc(-c3cncc4ccc(NS(=O)(=O)C5CC5)cc34)cc2)cn1 [Compound 162, Cyclopropanesulfonic acid {4-[4-(1-methyl-1H-pyrazol-4-yl)-phenyl]-isoquinolin-6-yl}-amide]
25 | < 10 nM | – | COC1CN(C(=O)c2ccc3cncc(-c4ccc(-c5cnn(C(C)C)c5)cc4)c3n2)C1 [Compound 153, (8-(4-(1-isopropyl-1H-pyrazol-4-yl)phenyl)-1,6-naphthyridin-2-yl)(3-methoxyazetidin-1-yl)methanone]
26 | 10 to 100 nM | – | O=C1Cc2ccc(-c3cncc4ccc(C(=O)N5CC(F)(F)C5)cc34)cc2N1 [Compound 146, 6-(6-(3,3-difluoroazetidine-1-carbonyl)isoquinolin-4-yl)indolin-2-one]
27 | 10 to 100 nM | – | CC(C)(O)Cn1cc(-c2ccc(-c3cncc4ccc(C(=O)N5CCCC5)cc34)cc2)cn1 [Compound 134]
28 | 10 to 100 nM | – | COC1CN(C(=O)c2ccc3cncc(-c4ccc(-c5ccn(C)n5)cc4)c3n2)C1 [Compound 156, (3-methoxyazetidin-1-yl)(8-(4-(1-methyl-1H-pyrazol-3-yl)phenyl)-1,6-naphthyridin-2-yl)methanone]
